Key:
[1] = Turbidity, derived count rate of scattered light; assay type: physicochemical; conditions: for Log Count Rate: log of derived count rate; for Count Rate: turbidity
Outline: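 One-day room-temperature aggregation at 1 mg/mL in PBS (pH 7.4) preceded measurement; samples then went into 1 mM KCl. Triplicates per sample, two independent experiments averaged.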

[2] = assay type: physicochemical; conditions: STD prep
[3] = system: HIV-1 infection of TZM-bl cells; test: HIV-1 infectivity enhancement assay, β-galactosidase luminescence; assay type: cell-based; conditions: for Rel-to EFC / n-fold to virus: Fig S8 panels B, D; for Log10 Inf. rel. to EF-C: log10 of HIV-1 infection of TZM-bl cells relative to EF-C, Fig S15 source data, asymmetric std dev errors
[4] = Fig S8 panels A, C, asymmetric log errors
[5] = Fig S8 panels B, D, derived count rate of scattered light
[6] = category 1 or 0 derived from the count rate, key not given
[7] = derived count rate of scattered light
[8] = derived count rate of scattered light, mean, std deviation in next column
[9] = Feb2021, Log10 of infectivity relative to EF-C
[10] = Feb2021, figures match the 1.3 µM column
[11] = Feb2021, infectivity enhancement relative to EF-C
[12] = Feb2021, infectivity relative to virus only
[13] = Feb2021, n-fold infectivity relative to EF-C
[14] = infectivity enhancement relative to EF-C
[15] = infectivity n-fold relative to virus alone
[16] = infectivity class (low / medium / high) of each library peptide, main list in c1-c6, same classes repeated in sub-lists of sequences containing the hydrophobicity/charge patterns P+,H0,P+,H0,P0,H0,P0, P+,H0,P0,H0,P0,H0,P0, P+,H0,P0,H0
[17] = category 1 or 0 from count rate, key not given
[18] = Feb2021, n-fold enhancement relative to EF-C
[19] = infectivity class (low / medium / high) of the peptide in the sequence-pattern analysis, Fig. S22-A4, class limits not given
[20] = derived count rate of scattered light, mean, std deviation in separate column
[21] = Feb2021, 1.3 µM value relative to virus only (0 µM)
[22] = Feb2021, log10 of infectivity relative to EF-C
[23] = Feb2021, unrounded values of the 1.3 µM column
[24] = Feb2021 run, infectivity n-fold relative to virus alone
[25] = Feb2021 run, log10 of infectivity relative to EF-C
[26] = Feb2021 run, n-fold infectivity relative to EF-C

Substance	Log Count Rate [1, 4]	Log Count Rate ([1]; Fig S8 panels B, D)	Count Rate [1, 5]	Zeta Count Rate / kcps [1, 8] [kcps]	TEM: 1= fibrils, 0= aggregates (micelle), 0.5 = aggregates and fibrils, -1 = nothing obersved, STD prep [2]	Log10 of Rel to EFC (Feb2021) [3, 9]	Rel-to EFC (Feb-2021) [3, 13]	Rel-to EFC [3, 14]	n-fold to virus [3, 15]	infectivity [3, 16]	Log10 Inf. rel. to EF-C [3]	Zeta Count Rate Category [1, 17]	Rel-to EFC (Feb-2021) [3, 18]	Zeta Count Rate Category ([1]; category 1/0, no key printed)	Zeta Count Rate / kcps [1, 20] [kcps]	n-fold to virus (Feb2021) [3, 21]	Absolute Infectivity / RLU /s (Feb2021) [3, 23] [RLU /s]	n-fold to virus (Feb2021) [3, 24]	Log10 of Rel to EFC (Feb2021) [3, 25]	Rel-to EFC (Feb-2021) [3, 26]	other results
HHHHKIKIKIKIYYYY [TM6]	4.107	4.107	12792.5	12792.53333	0.5	-0.1685	0.6784	0.6784	28.5	medium	-0.1685										Zeta Count Rate Category ([1]; category 1 / 0, no key given): 1; Zeta Count Rate Category [1, 6]: 1; Zeta Count Rate / kcps [1, 7]: 12792.53333 kcps; Absolute Infectivity / RLU /s (Feb2021) [3, 10]: 20713.33333 RLU /s; Rel-to EFC (Feb-2021) [3, 11]: 0.6784; n-fold to virus (Feb2021) [3, 12]: 28.5
KAKAKAQA [TG15]				76.93	0	-2.06	0.008711			low	-2.06	0	0.008711								Zeta Count Rate Category ([1]; category 1 / 0, no key given): 0; Zeta Count Rate / kcps [1, 7]: 76.93 kcps; Absolute Infectivity / RLU /s (Feb2021) [3, 10]: 186.7 RLU /s; n-fold to virus (Feb2021) [3, 12]: 0.366; infectivity [3, 19]: low
CKFKFQFNMW [KB14]				4107	1		0.9602			high	-0.01766			1	4107	40.34	21516.66667	40.34	-0.01766	0.9602	Log10 of Rel to EFC (Feb2021) [3, 22]: -0.01766; infectivity [3, 19]: high
QCKFKFQFNMWQ [CK7]				1208	1	-0.2086	0.6186			medium	-0.2086	1	0.6186	1	1208	25.99	19753.33333	25.99	-0.2086	0.6186	
QCKIKIQINMWQ [EF-C opt]	3.918	3.918	8271.27	8271	1	0.01546	1.036	1.036	43.54	high	0.01546	1	1.036	1	8271	43.54	21221.11111	43.54	0.01546	1.036	infectivity [3, 19]: high
MKIKIQINM [TM41]				981.3	1		0.2732			medium	-0.5635			1		11.48	15000				Log10 of Rel to EFC (Feb2021) [3, 22]: -0.5635
KWKWQW [KB3]	3.189	3.189	1544.87	1545	0		0.01453	0.01453	0.6105	low	-1.838			1		0.6105	386.7				Log10 of Rel to EFC (Feb2021) [3, 22]: -1.838
CRFRFQF [CN10]				390.5	1		0.3439			medium	-0.4635			1		14.45	7508				Log10 of Rel to EFC (Feb2021) [3, 22]: -0.4635
CKIKQIINMWQ [MG5a / CK17]	3.92	3.92	8316.83	8317	1	0.09484	1.244	1.244	52.27		0.09484	1	1.244		8317			52.27	0.09484	1.244	Zeta Count Rate Category ([1]; category 1 / 0, no key given): 1; Zeta Count Rate / kcps ([1]; derived count rate from zeta measurement, mean): 8317 kcps; Zeta Count Rate / kcps [1, 7]: 8317 kcps; Zeta Count Rate Category ([1]; key not given): 1; Absolute Infectivity / RLU /s (Feb2021) [3, 10]: 23696.66667 RLU /s; n-fold to virus (Feb2021) [3, 12]: 52.27; infectivity [3, 19]: high; Rel-to EFC (Feb-2021) ([3]; infectivity enhancement relative to EF-C (=1), Feb2021 run): 1.244; n-fold to virus (Feb2021) ([3]; infectivity n-fold relative to virus only, Feb2021 run): 52.27; Log10 of Rel to EFC (Feb2021) ([3]; log10 of infectivity relative to EF-C, Feb2021 run): 0.09484
QCKAKAQA [CK24]		3.12	1319.1	1319.1	0.5	-1.598	0.02526	0.02526	1.0614	low	-1.598	1	0.02526	1	1319.1	1.061	806.7	1.061	-1.598	0.02526	
QCKFKQFF [CK12]				225.4	1	-1.907	0.01239			low	-1.907				225.4			0.5204	-1.907	0.01239	Zeta Count Rate Category ([1]; category 1 / 0, no key given): 1; Zeta Count Rate Category [1, 6]: 1; Zeta Count Rate / kcps [1, 7]: 225.4 kcps; Absolute Infectivity / RLU /s (Feb2021) [3, 10]: 170 RLU /s; Rel-to EFC (Feb-2021) [3, 11]: 0.01239; n-fold to virus (Feb2021) [3, 12]: 0.5204
CKAKAQANM [BL9]				207.3	0.5	-1.504	0.03133			low	-1.504	1	0.03133	1	207.3	1.316	430	1.316	-1.504	0.03133	

Source: publication PMC10447463, “Data-mining unveils structure–property–activity correlation of viral infectivity enhancing self-assembling peptides” (Nature Communications, 2023)
